Assays:
Assay in all cases: relative viability (nuclei count vs DMSO), 5 days (fraction); higher = more cells survive
Linifanib + Decitabine = compound: Cc1ccc(F)c(NC(=O)Nc2ccc(-c3cccc4[nH]nc(N)c34)cc2)c1 [Linifanib] + Nc1ncn([C@H]2C[C@H](O)[C@@H](CO)O2)c(=O)n1 [Decitabine] (partner 2 µM)
How it was run: (§1)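 Lung cancer cell lines were seeded in 1536-well plates and dosed by pin tool the next day, with either a single drug or a fixed anchor-drug dose combined with five library-drug doses (not always all listed) spaced in √10 steps. Five days later, one step fixed the cells and stained their nuclei (final 0.05% Triton X-100, 1% formaldehyde, 1 ug/ml Hoechst), and nuclei were counted on 4× images. Relative viability is the nuclei count in treated wells divided by the count in vehicle wells, and each value is the median of duplicate plates.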

Linifanib + Dasatinib = compound: Cc1ccc(F)c(NC(=O)Nc2ccc(-c3cccc4[nH]nc(N)c34)cc2)c1 [Linifanib] + Cc1nc(Nc2ncc(C(=O)Nc3c(C)cccc3Cl)s2)cc(N2CCN(CCO)CC2)n1 [Dasatinib] (partner 0.075 µM)
How it was run: as §1

Linifanib + Lapatinib = compound: Cc1ccc(F)c(NC(=O)Nc2ccc(-c3cccc4[nH]nc(N)c34)cc2)c1 [Linifanib] + CS(=O)(=O)CCNCc1ccc(-c2ccc3ncnc(Nc4ccc(OCc5cccc(F)c5)c(Cl)c4)c3c2)o1 [Lapatinib] (partner 2 µM)
How it was run: as §1

Linifanib + Vorinostat = compound: Cc1ccc(F)c(NC(=O)Nc2ccc(-c3cccc4[nH]nc(N)c34)cc2)c1 [Linifanib] + O=C(CCCCCCC(=O)Nc1ccccc1)NO [Vorinostat] (partner 1 µM)
How it was run: as §1

Linifanib + Trametinib = compound: Cc1ccc(F)c(NC(=O)Nc2ccc(-c3cccc4[nH]nc(N)c34)cc2)c1 [Linifanib] + CC(=O)Nc1cccc(-n2c(=O)n(C3CC3)c(=O)c3c(Nc4ccc(I)cc4F)n(C)c(=O)c(C)c32)c1 [Trametinib] (partner 0.02 µM)
How it was run: as §1

Linifanib + OSI-027 = compound: Cc1ccc(F)c(NC(=O)Nc2ccc(-c3cccc4[nH]nc(N)c34)cc2)c1 [Linifanib] + COc1cccc2cc(-c3nc([C@H]4CC[C@H](C(=O)O)CC4)n4ncnc(N)c34)[nH]c12 [OSI-027] (partner 0.5 µM)
How it was run: as §1

Cell Line: UMC-11
- relative viability (Linifanib + Decitabine; first compound 0.03162 µM): 0.585
- relative viability (Linifanib + Decitabine; first compound 0.1 µM): 0.562
- relative viability (Linifanib + Decitabine; first compound 0.3162 µM): 0.581
- relative viability (Linifanib + Dasatinib; first compound 0.03162 µM): 0.42
- relative viability (Linifanib + Dasatinib; first compound 0.1 µM): 0.491
- relative viability (Linifanib + Dasatinib; first compound 0.3162 µM): 0.466
- relative viability (Linifanib + Lapatinib; first compound 0.03162 µM): 1
- relative viability (Linifanib + Lapatinib; first compound 0.1 µM): 1.1
- relative viability (Linifanib + Lapatinib; first compound 0.3162 µM): 1.06
- relative viability (Linifanib + Vorinostat; first compound 0.03162 µM): 0.334
- relative viability (Linifanib + Vorinostat; first compound 0.1 µM): 0.315
- relative viability (Linifanib + Vorinostat; first compound 0.3162 µM): 0.354
- relative viability (Linifanib + Trametinib; first compound 0.03162 µM): 0.807
- relative viability (Linifanib + Trametinib; first compound 0.1 µM): 0.721
- relative viability (Linifanib + Trametinib; first compound 0.3162 µM): 0.774
- relative viability (Linifanib + OSI-027; first compound 0.03162 µM): 0.446
- relative viability (Linifanib + OSI-027; first compound 0.1 µM): 0.465
- relative viability (Linifanib + OSI-027; first compound 0.3162 µM): 0.45

— the supplement of paper PMC10307832
